Literature values in patent US20160136091A1, “Orally Disintegrating Tablet” (SANWA KAGAKU KENKYUSHO CO., LTD., priority 2013, published 2016).

Settings: 20+5° C.

Row | Amount of water required to dissolve 1 g | Compound
1 | less than 1,000 mL | Cn1c(=O)c2[nH]cnc2n(C)c1=O [theophylline]
2 | less than 10 mL | OCCN1C[C@H](O)[C@@H](O)[C@H](O)[C@H]1CO [miglitol]
